{"source": "paper PMC12186843", "about": "“Targeting GABAergic Hypofunction Associated with Schizophrenia: Identification of α1β2γ2GABA‑A Receptor Ligands with Neuroprotective and Antipsychotic Properties” (ACS Chemical Neuroscience, 2025)", "key": {"[1]": {"system": "MDR1-MDCKII cell line", "assay": "A–B and B–A permeability assay in MDR1-MDCKII cell line", "description": "The A–B and B–A permeability assay using the MDR1-MDCKII cell line was conducted at Eurofins Discovery according to a well-established protocol."}, "[2]": {"system": "SH-SY5Y cells", "assay": "Intracellular calcium concentration after 6-OHDA (Fluo-4)", "format": "cell-based, human", "conditions": "50 μM pretreatment 1 h, then 6-OHDA 250 μM 1 h", "description": "7 (A). Effect of 6-Hydroxydopamine (6-OHDA) on intracellular calcium concentration [Ca^2+] determined by Fluo-4 AM. After pretreatment with tested compounds (50 μM) or vehicle (0.5% DMSO, v/v) for 1 h, the cells were incubated with 6-Hydroxydopamine (6-OHDA, 250 μM) for 1 h. 6-OHDA control: cells treated with 250 μM of 6-OHDA. […]. DMSO control: cells treated with 0.5% DMSO only. Data are presented as the mean ± SD from 2–3 independent experiments. Experiments were carried on with ImageXpress Micro XLS (Molecular Devices). (B) The level of ROS generation was determined by Cell ROX dye. After pretreatment with tested compounds (50 μM) or vehicle (0.5% DMSO, v/v) for 1 h, the cells were incubated with hydrogen peroxide (H2O2, 300 μM) for 1 h. H2O2 control: cells treated with H2O2 (300 μM). DMSO control: cells treated with 0.5% DMSO only. Data are presented as the mean ± SD from 2–3 independent experiments. Experiments were carried on with the ImageXpress Micro XLS (Molecular Devices).\nThe SH-SY5Y human neuroblastoma cell line was maintained according to established protocols. The cells, obtained from the American Type Culture Collection (ATCC), were cultured in Dulbecco’s Modified Eagle’s Medium (DMEM, high glucose; Thermo Fisher), supplemented with 10% fetal bovine serum (Thermo Fisher), 100 IU/ml penicillin (Merck), and 100 μg/mL streptomycin (Merck). They were grown in 75 cm^2 flasks (Nunc) at 37 °C in a humidified atmosphere containing 5% CO2. For compound evaluation, SH-SY5Y cells were plated in 96-well plates (Falcon) at a density of 2 × 10^4 cells per well. The cells were allowed to adhere and grow for 24 h in an incubator set to 37 °C and 5% CO2 before starting the experiments. Stock solutions of both test and reference compounds were prepared at a concentration of 10^–2 M. A minimum of 1 mg of each compound was dissolved in dimethyl sulfoxide (DMSO). Serial dilutions were made in DMSO, then further diluted in PBS, mixed, and added to the cell culture medium.\nThe intracellular Ca^2+ levels were assessed using a homogeneous cell-based assay with the Fluo-4 Direct Calcium Assay Kit (Thermo Fisher). Following incubation with the tested compounds, the supernatant was discarded, and the cells were incubated with 1 μM Fluo-4/AM in FluoroBrite DMEM (Thermo Fisher) for 1 h at 37 °C. The results were expressed as a percentage relative to the control (DMSO). Fluorescence intensity was recorded using the ImageXpress Micro XLS system (Molecular Devices)."}, "[3]": {"assay": "PAMPA permeability assay", "format": "in vitro ADME", "conditions": "pH 7.4, PAMPA, PBS pH 7.4, 100 μM, zolpidem tested as tartrate, read-out: Permeability Pe ± SD", "description": "PAMPA. The precoated PAMPA Plate System Gentest, obtained from Corning (Tewksbury, MA, USA), was used for the permeability study. The system includes a 96-well receiver filter plate precoated with structured phospholipid layers and a matching donor microplate. Stock solutions of the test compounds and reference drugs were prepared in PBS buffer (pH 7.4) at a final concentration of 100 μM. Each compound solution (200 μL) was added to the donor wells and incubated at room temperature for 5 h. The quantity of molecules that penetrated from the donor wells to the acceptor wells through the phospholipid membrane was determined using UPLC-MS spectrometry (Waters ACQUITY TQD system with the TQ Detector, Waters, Milford, USA) with an internal standard. Permeability coefficients (Pe, cm/s) were calculated according to the formula provided by the manufacturer."}, "[4]": {"system": "Wistar rats", "assay": "Amphetamine-induced hyperlocomotion", "format": "in vivo, rat", "conditions": "i.p., doses of 3.0 mg/kg and 10.0 mg/kg, amphetamine 1.0 mg/kg i.p., p < 0.01", "description": "8 (A). […] The dose of 0 mg/kg corresponds to subjects treated with vehicle and amphetamine (1.0 mg/kg, i.p.). Data are presented as the mean ± SEM (n = 8). One-way ANOVA F(3,28)=0.2, p > 0.05, one-way ANOVA F(3,28)=[…], p < 0.01**. (B). […] The dose of 0 mg/kg corresponds to subjects treated with vehicle and MK-801 (0.3 mg/kg, i.p.). Data are presented as the mean ± SEM (n = 8). ** p < 0.01, Newman-Keuls test, F(3,28)=5.29, p = 0.005. (C) Effects of compound 9, administered at doses ranging from 1 to 10 mg/kg, on spontaneous locomotor activity in rats. Data are presented as the mean ± SEM (n = 8). One-way ANOVA F(3,28) = 0.3, p > 0.05, one-way ANOVA F(3,28) = 6.7, p < 0.01*.\nAll behavioral procedures were conducted using drug-naive male Wistar rats (Charles River, Sulzfeld, Germany), (n = 8/per group). Animals were housed in groups of four per standard plastic cage under controlled environmental conditions (temperature: 22 ± 1 °C, humidity: 60%, and a 12:12 light-dark cycle with lights on at 07:00 a.m.). […]\nAll procedures were performed in a sound-attenuated experimental room between 9:00 a.m. and 3:00 p.m. […] Locomotor activity was measured in black octagonal cages (80 cm diameter, 30 cm height) amid dim lighting and constant white noise (65 dB). […] Locomotor activity (cm/30 min) was recorded and analyzed using an automated motion monitoring system (Videomot, TSE, Bad Homburg, Germany). […]"}}, "data": [{"molecule": "Cc1ccc2nc(-c3ccc(F)cc3)c(CC(=O)N3CCCC3)n2c1.O=C(O)C(O)C(O)C(=O)O", "note": "[Compound 17, 2-(4-Fluorophenyl)-6-methyl-3-(2-oxo-2-(pyrrolidin-1-yl)-ethyl)imidazo[1,2-a]pyridin-1-ium 3-carboxy-2,3-dihydroxy-propanoate]", "values": [{"measurement": "Substrate for P-glycoprotein (P-gp) efflux", "setting": "[1]; MDCK-MDR1 permeability assay", "value": "not to be a substrate"}, {"measurement": "Permeability A–B", "setting": "[1]; pH 7.4/7.4, 6 and 17 at 10 μM", "value": "55.6 10^–6 cm/s"}, {"measurement": "Permeability B–A", "setting": "[1]; pH 7.4/7.4, 6 and 17 at 10 μM", "value": "29.7 10^–6 cm/s"}, {"measurement": "Reduction of intracellular calcium levels", "setting": "[2]", "value": 48, "unit": "%"}, {"measurement": "Papp at 5 h, 100 μM", "setting": "[3]", "value": "> 4", "unit": "×10⁻⁶ cm/s"}, {"measurement": "Effect on amphetamine-induced hyperlocomotion", "setting": "[4]", "value": "significantly reduced amphetamine-induced hyperlocomotion"}]}]}
